Measurements: patent publication US20080146650A1, “PHARMACEUTICAL COMPOSITION COMPRISING A-LIPOIC ACID FOR INFLAMMATORY DISEASES” (priority 2005, published 2008)

Assays:
[1] = tested on: adhesion of monocytes to HUVECs; test: Monocyte adhesion assay on HUVECs; format: cell-based, human; settings: for increase in the adhesion of monocytes compared to treatment with control buffer: stimulation of HUVECs for 6 hours, TNF-α 10 ng/ml or IL-1β 15 ng/ml
From the text: Human peripheral blood monocytes were isolated from fresh blood of healthy volunteers by Ficoll-Paque gradient centrifugation. The study protocol and informed consent forms were approved by the Chonbuk. National University Hospital Review Board. Monocytes were isolated by negative selection using magnetic beads (Miltenyi Biotec, Bergisch Gladbach, Germany) (Ancuta P et al., J Exp Med 2003 197: 1701-1707). The purity of the monocyte fraction was 93-95% as determined by staining with anti-CD14, anti-CD33, anti-CD16b, and anti-CD56 mAbs and FACScan analysis (Becton Dickinson, Franklin Lakes, N.J.). Monocyte-endothelial adhesion was determined by fluorescent labeling of monocytes by a method described previously (Kim W. et al., Arterioscler Thromb Vase Biol 2003 23: 1377-1383). A number of monocytes adhered to HUVECs was expressed as percent calculated by the formula: % signal/total signal).

serum TNF-α = test: Serum TNF-α by ELISA after intravenous LPS in rats; format: in vivo, rat; settings: for serum level of TNF-α: rats, LPS 10 mg/kg intravenous by tail vein
Experimental: (§1) Blood samples (0.5 ml) were taken from rats at 0, 1, 2, 3, and 4 hours after the administration of LPS (10 mg/kg) or vehicle. Serum concentrations of TNF-α and IL-1β were determined by using ELISA kits (Endogen, Woburn, Mass.).
(§2) Serum concentrations of TNF-α and IL-1β were determined by using Enzyme-Linked Immunosorbent Assay (ELISA) Kits (Endogen, Woburn, Mass.). […] Thus, we used TNF-α- and IL-1β in this experiment.
(§3) Inbred male Sprague-Dawley rats (150-200 g) were obtained from Orient (Charles River Korea, Seoul, Korea) and were maintained on standard laboratory chow and water ad libitum. All animal studies were reviewed and approved by the Institutional Animal Care and Use Committee of Chonbuk National University Medical School. The rats (180-220 g) were divided into 3 groups; control (n=6), LPS (10 mg/kg) (n=6), and LPS (10 mg/kg) plus LA (10 mg/kg/day) (n=6). Control buffer and LPS were injected intravenously through the tail vein. LA was injected intraperitoneally once per day for three days prior to LPS administration. At 12 hours postinjection of vehicle or LPS, rats were anesthetized with ketamine (100 mg/kg) and xylazine (10 mg/kg), and subsequently sacrificed by cervical dislocation. Heart and jejunum were harvested for RNase protection assay, Western blot, and immunohistochemistry.

serum IL-1β = test: Serum IL-1β by ELISA after intravenous LPS in rats; format: in vivo, rat; settings: for serum level of IL-1β: rats, LPS 10 mg/kg intravenous by tail vein
Experimental: as §1, §2, §3

fractalkine mRNA = test: RNase protection assay (RPA) for fractalkine mRNA in HUVECs; format: cell-based, human
Experimental: (§4) Recombinant human TNF-α was purchased from R&D Systems (Minneapolis, Minn.). Anti-fractalkine antibody was purchased from Torrey Pines BioLabs (Houston, Tex.). LPS was purchased from Sigma-Aldrich (St. Louis, Mo.). LA (Thioctacid 600®) was obtained from VIATRIS GmbH & Co. KG (Frankfurt, Germany). Calcein-AM was purchased from Molecular Probe (Eugene, Oreg.). Media, sera, and other biochemical reagents were purchased from Sigma-Aldrich, unless otherwise specified. HUVECs were prepared from human umbilical cords by collagenase digestion as previously described (Kim W et al., FASEB J. 2003 17: 1337-19395. Homogeneity of endothelial cells in cultures was confirmed by the presence of factor VIII using immunofluorescence method. HUVECs were maintained in M-199 medium supplemented with 20% (vol/vol) fetal bovine serum at 37° C. in a 5% CO2atmosphere. The primary cultured cells used in this study were between 2 and 4 passages.
A part of cDNA of human fractalkine (nucleotides 482-893, GenBank accession NM002996) was amplified by PCR and subcloned into pBluescript II KS+ (Stratagene, La Jolla, Calif.). After linearizing with EcoRI, ^32P-labeled antisense RNA probes were synthesized by in vitrotranscription using T7 polymerase (Ambion Maxiscript kit; Ambion, Austin, Tex.) and gel purified. RPA was performed on total RNAs using the Ambion RPA kit (Ambion, Austin, Tex.). An antisense RNA probe of human cyclophilin (nucleotides 135-239, GenBank accession X52856) was used as an internal control for RNA quantification.

fractalkine protein = test: Western blot analysis of fractalkine protein in HUVECs; format: cell-based, human
Experimental: as §4
Western blot analyses were performed as previously described (Aim S Y et al., Am J Pathol 2004 164: 1663-1672). Samples were mixed with sample buffer, boiled for 10 minutes, separated by SDS-PAGE electrotransfered to nitrocellulose membranes. The nitrocellulose membranes were blocked by incubation in blocking buffer, incubated with anti-fractalkine monoclonal antibody, washed, and incubated with horseradish peroxidase-conjugated secondary antibody. […]

NF-κB (p65/p50) = test: EMSA for NF-κB binding activity in nuclear extracts of HUVECs; format: cell-based, human
Experimental: EMSA for NF-κB proteins was performed as previously described (Kim I et al., J Biol Chem 2001 276: 7614-7620). Briefly, the cells were lysed in a hypotonic buffer (10 mmol/L HEPES, pH 7.9, 1.5 mmol/L MgCl2, 10 mmol/L KCl, 0.5 mmol/L DTT, 0.5 mmol/L PMSF) containing 0.6% NP-40 and centrifuged at 4000 rpm for 15 min. The pellet was lysed in […] of a high salt buffer (20 mmol/L HEPES, pH 7.9, 420 mmol/L NaCl, 25% glycerol, 1.5 mmol/L MgCl2, 0.2 mmol/L EDTA, 0.5 mmol/L PMSF, 0.5 mmol/L DTT) for 20 min on ice. Seventy five microliter of storage buffer (20 mmol/L HEPES, pH7.9, 100 mmol/L NaCl, 20% glycerol, 0.2 mmol/L EDTA, 0.5 mmol/L PMSF, 0.5 mmol/L DTT) was added, agitated for 10 sec by vortexing, and centrifused at 14,000 rpm for 20 min. Nuclear extracts ([…]) were incubated with approximately 20,000 cpm of ^32P-labeled NF-κB binding site oligomer 5′-[…]-3′ (SEQ ID NO: 1) (Santa Cruz Biotechnology, Santa Cruz, Calif.) for […] at 20 C. EMSA for SP-1 protein was performed with biotin-labeled SP-1 binding site oligomer 5′-[…] (SEQ ID NO: 2) and signals were detected by chemiluminescent imaging according to the manufacturer's protocol (EMSA Gel-Shift. Kit; Panomics, Redwood City, Calif.).
We previously reported that NF-κB is involved in TNF-α induced fractalkine expression in HUVECs (Ahn S Y et al., Am J Pathol 2004 164: 1663-1672). […]

[2] = tested on: fractalkine expression in rat heart; test: Immunohistochemical analysis of fractalkine expression in heart of LPS-induced endotoxemia rats; format: in vivo; settings: LA 10 mg/kg/day for 3 days before LPS 10 mg/kg i.v., 12 hours
Experimental: as §3
(§5) After sacrifice, the hearts and jejunums were quickly excised, rinsed with PBS, and frozen in OCT in methyl-butane on dry ice. Frozen tissue blocks were sectioned at […], and 8-12 sections of heart or jejunum from each rat were incubated with anti-fractalkine antibody at 4 C overnight. […] Fractalkine expression was semi-quantitated by grading the degree of immunostaining (very strong=5, strong=4, moderate=3, weak=2, none=1). […]

[3] = tested on: fractalkine expression in rat small intestine; test: Immunohistochemical analysis of fractalkine expression in small intestine of LPS-induced endotoxemia rats; format: in vivo; settings: LA pretreatment before LPS, 12 hours, FIGS. 7a, 7b
Experimental: as §3, §5

SP-1 = test: EMSA for SP-1 binding activity in nuclear extracts of HUVECs; settings: FIG. 5b
Experimental: Briefly, the cells were lysed in a hypotonic buffer (10 mmol/L HEPES, pH 7.9, 1.5 mmol/L MgCl2, 10 mmol/L KCl, 0.5 mmol/L DTT, 0.5 mmol/L PMSF) containing 0.6% NP-40 and centrifuged at 4000 rpm for 15 min. […] Seventy five microliter of storage buffer (20 mmol/L HEPES, pH7.9, 100 mmol/L NaCl, 20% glycerol, 0.2 mmol/L EDTA, 0.5 mmol/L PMSF, 0.5 mmol/L DTT) was added, agitated for 10 sec by vortexing, and centrifused at 14,000 rpm for 20 min. […] EMSA for SP-1 protein was performed with biotin-labeled SP-1 binding site oligomer 5′-[sequence]

Compound: TNF-α
- increase in the adhesion of monocytes compared to treatment with control buffer [1]: 5 fold

Compound: lipopolysaccharide [LPS]
- serum level of TNF-α (serum TNF-α; 3 hours after LPS): 975 ± 121 pg/mL
- serum level of TNF-α (serum TNF-α; 4 hours after LPS): 0 pg/mL
- serum level of IL-1β (serum IL-1β; 1 hour after LPS): 104 ± 20 pg/mL
- serum level of IL-1β (serum IL-1β; 2 hours after LPS): 232 ± 45 pg/mL
- serum level of IL-1β (serum IL-1β; 3 hours after LPS): 212 ± 19 pg/mL

Compound: IL-1β: proinflammatory cytokine used to stimulate HUVECs
- increase in the adhesion of monocytes compared to treatment with control buffer [1]: 4 fold

Compound: O=C(O)CCCCC1CCSS1 (stereo not shown) [LA, 1,2-dithiolane-3-pentanoic acid]
- effect on LPS-increased serum TNF-α (serum TNF-α; rats pretreated with LA, then LPS, FIG. 1a): significantly inhibited
- effect on LPS-increased serum IL-1β (serum IL-1β; rats pretreated with LA, then LPS, FIG. 1b): significantly inhibited
- suppression of IL-1β-induced expression of fractalkine mRNA (fractalkine mRNA; IL-1β 15 ng/ml, LA 4 mmol/L, FIG. 4b): 70-80%
- effect on expression of fractalkine mRNA induced by TNF-α and IL-1β together (fractalkine mRNA; TNF-α 10 ng/ml and IL-1β 15 ng/ml together, FIG. 4c): suppressed
- suppression of TNF-α-induced expression of fractalkine mRNA (fractalkine mRNA; TNF-α 10 ng/ml, LA 4 mmol/L, FIG. 4a): 70-80%
- effect on TNF-α- and/or IL-1β-induced expression of fractalkine protein (fractalkine protein): decreased
- effect on basal NF-κB (p65/p50) binding activity (NF-κB (p65/p50); LA alone): no effect
- effect on TNF-α- and/or IL-1β-induced NF-κB (p65/p50) binding activity (NF-κB (p65/p50); TNF-α 10 ng/ml and/or IL-1β 15 ng/ml, LA 4 mmol/L, FIG. 5a): suppressed
- decrease in monocyte adhesion to IL-1β-stimulated HUVECs ([1]; IL-1β 15 ng/ml, FIG. 6a, 6b): 76%
- decrease in monocyte adhesion to TNF-α-stimulated HUVECs ([1]; TNF-α 10 ng/ml, FIG. 6a, 6b): 63%
- effect on HUVEC adhesiveness for monocytes, substance alone ([1]; unstimulated HUVECs): no effects
- effect on LPS-induced fractalkine expression in arterial endothelial cells, endocardium, and endocardial surface of cardiac valves [2]: dramatically suppressed
- effect on LPS-induced fractalkine expression in arterial endothelial cells and villous endothelium [3]: dramatically suppressed
- effect on TNF-α- and/or IL-1β-induced SP-1 binding activity (SP-1): decreased
- effect on basal SP-1 binding activity (SP-1; LA alone): no effect
